Source: PubChem BioAssay (NCI)
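Assay format: 96-well plates, 48-hour exposure. TGI: total growth inhibition.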

Tests used:
Test in all cases: NCI anticancer screen, dose series, 48 h
786-0 renal = test system: 786-0 renal
A498 renal = test system: A498 renal
A549 NSCLC = test system: A549 NSCLC
ACHN renal = test system: ACHN renal
BT-549 breast = test system: BT-549 breast
CAKI-1 renal = test system: CAKI-1 renal
CCRF-CEM leukemia = test system: CCRF-CEM leukemia
COLO 205 colon = test system: COLO 205 colon
DLD-1 colon = test system: DLD-1 colon
DMS 114 small cell lung = test system: DMS 114 small cell lung
DMS 273 small cell lung = test system: DMS 273 small cell lung
DU-145 prostate = test system: DU-145 prostate
EKVX NSCLC = test system: EKVX NSCLC
HCC-2998 colon = test system: HCC-2998 colon
HCT-116 colon = test system: HCT-116 colon
HCT-15 colon = test system: HCT-15 colon
HL-60(TB) leukemia = test system: HL-60(TB) leukemia
HOP-18 NSCLC = test system: HOP-18 NSCLC
HOP-62 NSCLC = test system: HOP-62 NSCLC
HOP-92 NSCLC = test system: HOP-92 NSCLC
HS 578T breast = test system: HS 578T breast
HT29 colon = test system: HT29 colon
IGROV1 ovarian = test system: IGROV1 ovarian
K-562 leukemia = test system: K-562 leukemia
KM12 colon = test system: KM12 colon
KM20L2 colon = test system: KM20L2 colon
LOX IMVI melanoma = test system: LOX IMVI melanoma
LXFL 529 NSCLC = test system: LXFL 529 NSCLC
M14 melanoma = test system: M14 melanoma
M19-MEL melanoma = test system: M19-MEL melanoma
MALME-3M melanoma = test system: MALME-3M melanoma
MCF7 breast = test system: MCF7 breast
MDA-MB-231 breast = test system: MDA-MB-231 breast
MDA-MB-435 = test system: MDA-MB-435
MDA-N = test system: MDA-N
MOLT-4 leukemia = test system: MOLT-4 leukemia
NCI-H226 lung = test system: NCI-H226 lung
NCI-H23 lung = test system: NCI-H23 lung
NCI-H460 lung = test system: NCI-H460 lung
NCI-H522 lung = test system: NCI-H522 lung
NCI/ADR-RES ovarian = test system: NCI/ADR-RES ovarian
OVCAR-3 ovarian = test system: OVCAR-3 ovarian
OVCAR-4 ovarian = test system: OVCAR-4 ovarian
OVCAR-5 ovarian = test system: OVCAR-5 ovarian
OVCAR-8 ovarian = test system: OVCAR-8 ovarian
PC-3 prostate = test system: PC-3 prostate
RPMI-8226 leukemia = test system: RPMI-8226 leukemia
RXF 393 renal = test system: RXF 393 renal
RXF-631 renal = test system: RXF-631 renal
SF-268 CNS = test system: SF-268 CNS
SF-295 CNS = test system: SF-295 CNS
SF-539 CNS = test system: SF-539 CNS
SK-MEL-2 melanoma = test system: SK-MEL-2 melanoma
SK-MEL-28 melanoma = test system: SK-MEL-28 melanoma
SK-MEL-5 melanoma = test system: SK-MEL-5 melanoma
SK-OV-3 ovarian = test system: SK-OV-3 ovarian
SN12C renal = test system: SN12C renal
SNB-19 CNS = test system: SNB-19 CNS
SNB-75 CNS = test system: SNB-75 CNS
SNB-78 CNS = test system: SNB-78 CNS
SR leukemia = test system: SR leukemia
SW-620 colon = test system: SW-620 colon
T-47D breast = test system: T-47D breast
TK-10 renal = test system: TK-10 renal
U251 CNS = test system: U251 CNS
UACC-257 melanoma = test system: UACC-257 melanoma
UACC-62 melanoma = test system: UACC-62 melanoma
UO-31 renal = test system: UO-31 renal
XF 498 CNS = test system: XF 498 CNS

Structure (SMILES): CC(=O)N(O)CCCCCNC(=O)CCC(=O)N(O)CCCCCNC(=O)CCC(=O)N(O)CCCCCN
- TGI (786-0 renal): > 100 µM
- TGI (A498 renal): > 100 µM
- TGI (A549 NSCLC): > 100 µM
- TGI (ACHN renal): > 100 µM
- TGI (BT-549 breast): > 100 µM
- TGI (CAKI-1 renal): > 100 µM
- TGI (CCRF-CEM leukemia): > 54.4 µM
- TGI (COLO 205 colon): > 100 µM
- TGI (DLD-1 colon): > 100 µM
- TGI (DMS 114 small cell lung): > 100 µM
- TGI (DMS 273 small cell lung): > 100 µM
- TGI (DU-145 prostate): > 60.1 µM
- TGI (EKVX NSCLC): > 100 µM
- TGI (HCC-2998 colon): > 100 µM
- TGI (HCT-116 colon): > 100 µM
- TGI (HCT-15 colon): > 100 µM
- TGI (HL-60(TB) leukemia): > 76.9 µM
- TGI (HOP-18 NSCLC): 83.2 µM
- TGI (HOP-62 NSCLC): > 100 µM
- TGI (HOP-92 NSCLC): > 100 µM
- TGI (HS 578T breast): > 100 µM
- TGI (HT29 colon): > 100 µM
- TGI (IGROV1 ovarian): > 100 µM
- TGI (K-562 leukemia): > 100 µM
- TGI (KM12 colon): > 100 µM
- TGI (KM20L2 colon): > 100 µM
- TGI (LOX IMVI melanoma): > 100 µM
- TGI (LXFL 529 NSCLC): > 100 µM
- TGI (M14 melanoma): > 100 µM
- TGI (M19-MEL melanoma): > 100 µM
- TGI (MALME-3M melanoma): > 100 µM
- TGI (MCF7 breast): > 100 µM
- TGI (MDA-MB-231 breast): > 100 µM
- TGI (MDA-MB-435): > 100 µM
- TGI (MDA-N): > 100 µM
- TGI (MOLT-4 leukemia): > 82.8 µM
- TGI (NCI-H226 lung): > 92.3 µM
- TGI (NCI-H23 lung): > 100 µM
- TGI (NCI-H460 lung): > 54.9 µM
- TGI (NCI-H522 lung): > 100 µM
- TGI (NCI/ADR-RES ovarian): > 100 µM
- TGI (OVCAR-3 ovarian): > 100 µM
- TGI (OVCAR-4 ovarian): > 100 µM
- TGI (OVCAR-5 ovarian): 84 µM
- TGI (OVCAR-8 ovarian): > 100 µM
- TGI (PC-3 prostate): > 100 µM
- TGI (RPMI-8226 leukemia): > 100 µM
- TGI (RXF 393 renal): > 100 µM
- TGI (RXF-631 renal): > 100 µM
- TGI (SF-268 CNS): > 100 µM
- TGI (SF-295 CNS): > 100 µM
- TGI (SF-539 CNS): > 92.3 µM
- TGI (SK-MEL-2 melanoma): > 100 µM
- TGI (SK-MEL-28 melanoma): > 100 µM
- TGI (SK-MEL-5 melanoma): > 85.5 µM
- TGI (SK-OV-3 ovarian): > 100 µM
- TGI (SN12C renal): > 100 µM
- TGI (SNB-19 CNS): > 100 µM
- TGI (SNB-75 CNS): > 100 µM
- TGI (SNB-78 CNS): > 100 µM
- TGI (SR leukemia): > 77.5 µM
- TGI (SW-620 colon): > 100 µM
- TGI (T-47D breast): > 100 µM
- TGI (TK-10 renal): > 100 µM
- TGI (U251 CNS): > 100 µM
- TGI (UACC-257 melanoma): > 100 µM
- TGI (UACC-62 melanoma): > 100 µM
- TGI (UO-31 renal): > 100 µM
- TGI (XF 498 CNS): > 100 µM

Structure (SMILES): CCc1cccc(CC)c1NC(=O)C(C#N)C1=C(Cl)C(=O)c2ccccc2C1=O (configuration not stated)
- TGI (786-0 renal): 31 µM
- TGI (A498 renal): 36.5 µM
- TGI (A549 NSCLC): 40.9 µM
- TGI (ACHN renal): 30.5 µM
- TGI (BT-549 breast): 24.8 µM
- TGI (CAKI-1 renal): 24.7 µM
- TGI (CCRF-CEM leukemia): 15.6 µM
- TGI (COLO 205 colon): 49.1 µM
- TGI (DLD-1 colon): 45.2 µM
- TGI (DMS 114 small cell lung): 65.4 µM
- TGI (DMS 273 small cell lung): 45.3 µM
- TGI (DU-145 prostate): 30.5 µM
- TGI (EKVX NSCLC): 36 µM
- TGI (HCC-2998 colon): 31.2 µM
- TGI (HCT-116 colon): 34 µM
- TGI (HCT-15 colon): 42.9 µM
- TGI (HL-60(TB) leukemia): 5.28 µM
- TGI (HOP-18 NSCLC): 28.9 µM
- TGI (HOP-62 NSCLC): 21.4 µM
- TGI (HOP-92 NSCLC): 8.89 µM
- TGI (HS 578T breast): 9.32 µM
- TGI (HT29 colon): 39.7 µM
- TGI (IGROV1 ovarian): 32 µM
- TGI (K-562 leukemia): 14.1 µM
- TGI (KM12 colon): 35.5 µM
- TGI (KM20L2 colon): 43.8 µM
- TGI (LOX IMVI melanoma): 45.1 µM
- TGI (LXFL 529 NSCLC): 30.1 µM
- TGI (M14 melanoma): 35.1 µM
- TGI (M19-MEL melanoma): 47.2 µM
- TGI (MALME-3M melanoma): 21 µM
- TGI (MCF7 breast): 34.5 µM
- TGI (MDA-MB-231 breast): 21.6 µM
- TGI (MDA-MB-435): 27.9 µM
- TGI (MDA-N): 30.3 µM
- TGI (MOLT-4 leukemia): 20.3 µM
- TGI (NCI-H226 lung): 29.8 µM
- TGI (NCI-H23 lung): 24.3 µM
- TGI (NCI-H460 lung): 52 µM
- TGI (NCI-H522 lung): 23 µM
- TGI (OVCAR-3 ovarian): 36.9 µM
- TGI (OVCAR-4 ovarian): 31.6 µM
- TGI (OVCAR-5 ovarian): 34.5 µM
- TGI (OVCAR-8 ovarian): 57.1 µM
- TGI (PC-3 prostate): 25.9 µM
- TGI (RPMI-8226 leukemia): 23.4 µM
- TGI (RXF 393 renal): 29.8 µM
- TGI (RXF-631 renal): > 56.8 µM
- TGI (SF-268 CNS): 36 µM
- TGI (SF-295 CNS): 29.9 µM
- TGI (SF-539 CNS): 25.6 µM
- TGI (SK-MEL-2 melanoma): 34.7 µM
- TGI (SK-MEL-28 melanoma): 41 µM
- TGI (SK-MEL-5 melanoma): 28.2 µM
- TGI (SK-OV-3 ovarian): 42.4 µM
- TGI (SN12C renal): 31.3 µM
- TGI (SNB-19 CNS): 44.4 µM
- TGI (SNB-75 CNS): 17.4 µM
- TGI (SNB-78 CNS): 40.8 µM
- TGI (SR leukemia): > 28.9 µM
- TGI (SW-620 colon): 31.2 µM
- TGI (T-47D breast): 18.1 µM
- TGI (TK-10 renal): 35.9 µM
- TGI (U251 CNS): 33.7 µM
- TGI (UACC-257 melanoma): 32.2 µM
- TGI (UACC-62 melanoma): 31.7 µM
- TGI (UO-31 renal): 24.3 µM
- TGI (XF 498 CNS): 29.4 µM
